# What was measured:
# [1] = system: GL261 glioblastoma tumors; test: GL261 tumors grown on chick CAMs, CLK-peptide combined with ionizing radiation; assay type: in vivo; settings: CLK-peptide 50 μg/embryo + 5.0 Gy; 7-day incubation
# Protocol: FIG. 25 Effects of CLK-Peptide on Anti-Tumor Activity of Ionizing Radiation In Vivo. Glioblastoma tumors grown on CAMs were treated with either CLK-Peptide, ionizing radiation, both, or left untreated as a control. Their relative sizes after incubation are shown. FIG. 26 Quantitation of the Effects of CLK-Peptide on Anti-tumor Activity of Ionizing Radiation in vivo. Glioblastoma tumors grown on CAMs were treated with either CLK-Peptide, ionizing radiation, both, or left untreated as a control. Their relative wet weights following treatment are graphed. The effects of CLK-peptide in combination with ionizing radiation on tumor growth in vivo were assessed. GL261 glioblastoma cells were seeded on the CAMs of 10-day old chick embryos. Twenty-four hours later, the embryos were injected systemically with CLK-peptide (50 μg/embryo). Twenty-four hours after CLK-peptide treatment the embryos were either untreated or irradiated with a single fraction dose of ionizing radiation (5.0 Gy). Photographs showing the relative sizes of […] given each treatment individually, the combination treatment, and not treated, are shown in FIG. 25. At the end of the 7-day incubation period the tumors (N=6 to 8 per condition) were removed and wet weights determined.
# [2] = system: Human melanoma (M21) cells; test: M21 cell adhesion, CLK-peptide combined with mAb HUIV26 (Example 10); assay type: cell-based; settings: data not shown
# Protocol: FIG. 10 Effect of mAb HUIV26 in Combination with CLK-Peptide on Adhesion of M21 Cells to Denatured Collagen Type IV. Microtiter wells were coated with denatured collagen type-IV. M21 cells were allowed to bind to the coated substrates in the presence of CLK-peptide, mAb HUIV26, or both.
# The effects of CLK-peptide, mAb HUIV26, and the combination of both on tumor cell adhesion were examined in vitro. Non-tissue culture treated 48-well microtiter plates were coated overnight at 4° C. with either native or denatured collagen type-IV (5 μg/ml). The plates were then blocked with 1% BSA in PBS for 1 hour at 37° C. Human melanoma (M21) cells at 10^5 cells/well in adhesion buffer were allowed to attach to the coated wells in the presence of either CLK-peptide (100 μg/ml), or mAb HUIV26 (100 μg/ml), or both together (CLK-peptide 25 μg/ml, mAb HUIV26 100 μg/ml). The cells were washed 2× with PBS, stained with crystal violet and destained with 10% acetic acid. Cell adhesion was quantified by measuring the O.D. of eluted dye at 600 nm. Data bars represent the mean O.D.±standard deviation from triplicate wells.
substance,measurement,setting,value
"H-CLKQNGGNFSLG-OH [CLK-peptide, NH2-C-L-K-Q-N-G-G-N-F-S-L-G-COOH]","inhibition of tumor growth (wet weights), combination therapy versus either treatment alone",[1],greater
same,effect on M21 cell adhesion to native collagen type-IV,[2],neither had any effect
